This is an account of results in patent US20250339494A1, “COMPOUNDS INDUCING PRODUCTION OF PROTEINS BY IMMUNE CELLS” (UNIVERSITE PARIS CITE, priority 2022, published 2025).

This test deals with Human B cells. Nature of the test: IL-10 induction in human B cells cultivated 2 days with anti-IgM plus CpG; IL-10 measured in cell culture supernatants. In kind it is cell-based. The note with it: 2 consecutive days, molecule at 0.25 μM final concentration, culture supernatant. Here is the method: Human B cells isolated magnetically through negative selection (B Cell Isolation Kit II, human, Miltenyi ref: 130-091-151) were cultivated for 2 consecutive days in the presence of anti-IgM plus CpG in the presence of the indicated molecule (see table 3) at 0.25 μM final concentration. IL-10 was measured in cell culture supernatants.
Human B cells isolated magnetically through negative selection (B Cell Isolation Kit II, human, Miltenyi ref: 130-091-151) were cultivated for 2 consecutive days in the presence of anti-IgM plus CpG in the presence of DMSO (as control) or in the presence of the indicated molecule (as identified in the attached excel file) at 0.25 microM final concentration. IL-10 was measured in cell culture supernatants. NS: non stimulated B cell culture condition.

In the case of “2-methoxy-N-(1-methyl-2-(pyridin-3-yl)-1H-imidazo[4,5-b]pyridin-5-yl)benzamide + 2-methoxy-N-(3-methyl-2-(pyridin-3-yl)-3H-imidazo[4,5-b]pyridin-5-yl)benzamide [Compound 131]”, the “IL-10 Induction Mean (pg/mL) human” value worked out at 1.85 pg/mL.
